# Key:
# Type in all cases: in vivo
# transplanted rice = experiment: Test Example 1: preemergence treatment under submerged conditions, effect on crop; settings: dose 2.52 g/a
# Summary of the method: (§1)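 Alluvial soil flooded to 4 cm depth; barnyardgrass, bulrush and ducksalad sown and 2.5-leaf rice seedlings transplanted. Same day, water-diluted emulsifiable concentrates applied to the water surface at set doses (g/a). Kept at 25–30 °C in greenhouse; effects scored 0–5 by mortality after three weeks.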
# common ragweed [1] = experiment: Test Example 3: herbicidal effects in soil treatment; settings: dose 3.2 g/a
# Summary of the method: (§2)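 Seeds were sown in sterilized diluvial soil and covered with about 1.5 cm of soil. Compounds, formulated as emulsifiable concentrates and diluted with water, were sprayed evenly over the soil surface at set doses in g/a. Herbicidal effect was scored on a rating scale three weeks later.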
# common lambsquater [2] = experiment: as above; settings: dose 3.2 g/a
# Summary of the method: as §2
# velvetleaf [3] = experiment: as above; settings: dose 3.2 g/a
# Summary of the method: as §2
# posumbu knotweed [4] = experiment: as above; settings: dose 3.2 g/a
# Summary of the method: as §2
# wild oat [5] = experiment: as above; settings: dose 3.2 g/a
# Summary of the method: as §2
# water foxtail [6] = experiment: as above; settings: dose 3.2 g/a
# Summary of the method: as §2
# large crabgrass [7] = experiment: as above; settings: dose 3.2 g/a
# Summary of the method: as §2
# redroot pigweed [8] = experiment: as above; settings: dose 3.2 g/a
# Summary of the method: as §2
# beadstraw [9] = experiment: as above; settings: dose 3.2 g/a
# Summary of the method: as §2
# Italian ryegrass [10] = experiment: as above; settings: dose 3.2 g/a
# Summary of the method: as §2
# barnyardgrass [11] = experiment: as above; settings: dose 3.2 g/a
# Summary of the method: as §2
# giant foxtail [12] = experiment: as above; settings: dose 3.2 g/a
# Summary of the method: as §2
# common chickweed [13] = experiment: as above; settings: dose 3.2 g/a
# Summary of the method: as §2
# bulrush [14] = experiment: Test Example 1: herbicidal effects in preemergence treatment under submerged conditions; settings: dose 2.52 g/a
# Summary of the method: as §1
# ducksalad [15] = experiment: as above; settings: dose 2.52 g/a
# Summary of the method: as §1
# barnyardgrass [16] = experiment: as above; settings: dose 2.52 g/a
# Summary of the method: as §1
# common ragweed [17] = experiment: Test Example 4: herbicidal effect in foliage treatment; settings: dose 3.2 g/a
# Summary of the method: (§3)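 Weeds and crops sown in sterilized diluvial soil under ~1.5 cm cover and grown in greenhouse at 25 to 30° C. At 14 days, water-diluted emulsifiable concentrate sprayed onto foliage at set doses (g/a); herbicidal effect scored on a rating scale three weeks after application.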
# common lambsquater [18] = experiment: as above; settings: dose 3.2 g/a
# Summary of the method: as §3
# velvetleaf [19] = experiment: as above; settings: dose 3.2 g/a
# Summary of the method: as §3
# posumbu knotweed [20] = experiment: as above; settings: dose 3.2 g/a
# Summary of the method: as §3
# wild oat [21] = experiment: as above; settings: dose 3.2 g/a
# Summary of the method: as §3
# water foxtail [22] = experiment: as above; settings: dose 3.2 g/a
# Summary of the method: as §3
# large crabgrass [23] = experiment: as above; settings: dose 3.2 g/a
# Summary of the method: as §3
# redroot pigweed [24] = experiment: as above; settings: dose 3.2 g/a
# Summary of the method: as §3
# beadstraw [25] = experiment: as above; settings: dose 3.2 g/a
# Summary of the method: as §3
# Italian ryegrass [26] = experiment: as above; settings: dose 3.2 g/a
# Summary of the method: as §3
# barnyardgrass [27] = experiment: as above; settings: dose 3.2 g/a
# Summary of the method: as §3
# giant foxtail [28] = experiment: as above; settings: dose 3.2 g/a
# Summary of the method: as §3
# common chickweed [29] = experiment: as above; settings: dose 3.2 g/a
# Summary of the method: as §3
# bulrush [30] = experiment: Test Example 2: herbicidal effects during the vegetation period under submerged conditions; settings: treatment during the vegetation period under submerged conditions; dose 2.52 g/a
# Summary of the method: (§4)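 Barnyardgrass, bulrush and ducksalad were co-sown in alluvial soil flooded to 4 cm and grown in a greenhouse at 25 to 30° C. At the 1- or 2-leaf stage, water-diluted emulsifiable concentrates went onto the water surface at set doses (g/a). Herbicidal effect was scored three weeks later on a graded scale.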
# ducksalad [31] = experiment: as above; settings: treatment during the vegetation period under submerged conditions; dose 2.52 g/a
# Summary of the method: as §4
# barnyardgrass [32] = experiment: as above; settings: treatment during the vegetation period under submerged conditions; dose 2.52 g/a
# Summary of the method: as §4
# [33] = three weeks after the application
compound,measurement,setting,value
CN(c1ccccc1CN1COC(C)(C)CC1=O)S(=O)(=O)C(F)(F)F [II-18],"a: transplanted rice, effect on crop (evaluation scale 0-5)",transplanted rice,0 (mortality of less than 5% (almost ineffective))
same,"J: common ragweed, herbicidal effect (evaluation scale 0-5)",common ragweed [1],4 (mortality of at least 70% and less than 90%)
same,"L: common lambsquater, herbicidal effect (evaluation scale 0-5)",common lambsquater [2],0 (mortality of less than 5% (almost ineffective))
same,"I: velvetleaf, herbicidal effect (evaluation scale 0-5)",velvetleaf [3],0 (mortality of less than 5% (almost ineffective))
same,"M: posumbu knotweed, herbicidal effect (evaluation scale 0-5)",posumbu knotweed [4],0 (mortality of less than 5% (almost ineffective))
same,"F: wild oat, herbicidal effect (evaluation scale 0-5)",wild oat [5],0 (mortality of less than 5% (almost ineffective))
same,"G: water foxtail, herbicidal effect (evaluation scale 0-5)",water foxtail [6],0 (mortality of less than 5% (almost ineffective))
same,"D: large crabgrass, herbicidal effect (evaluation scale 0-5)",large crabgrass [7],0 (mortality of less than 5% (almost ineffective))
same,"K: redroot pigweed, herbicidal effect (evaluation scale 0-5)",redroot pigweed [8],0 (mortality of less than 5% (almost ineffective))
same,"O: beadstraw, herbicidal effect (evaluation scale 0-5)",beadstraw [9],4 (mortality of at least 70% and less than 90%)
same,"H: Italian ryegrass, herbicidal effect (evaluation scale 0-5)",Italian ryegrass [10],0 (mortality of less than 5% (almost ineffective))
same,"A: barnyardgrass, herbicidal effect (evaluation scale 0-5)",barnyardgrass [11],4 (mortality of at least 70% and less than 90%)
same,"E: giant foxtail, herbicidal effect (evaluation scale 0-5)",giant foxtail [12],0 (mortality of less than 5% (almost ineffective))
same,"N: common chickweed, herbicidal effect (evaluation scale 0-5)",common chickweed [13],4 (mortality of at least 70% and less than 90%)
same,"B: bulrush, herbicidal effect (evaluation scale 0-5)",bulrush [14],5 (mortality of 90% or above (nearly complete death))
same,"C: ducksalad, herbicidal effect (evaluation scale 0-5)",ducksalad [15],0 (mortality of less than 5% (almost ineffective))
same,"A: barnyardgrass, herbicidal effect (evaluation scale 0-5)",barnyardgrass [16],2 (mortality of at least 20% and less than 40%)
same,"J: common ragweed, herbicidal effect",common ragweed [17]; three weeks after application,3 (mortality of at least 40% and less than 70%)
same,"L: common lambsquater, herbicidal effect",common lambsquater [18]; three weeks after application,0 (mortality of less than 5% (almost ineffective))
same,"I: velvetleaf, herbicidal effect",velvetleaf [19]; three weeks after application,0 (mortality of less than 5% (almost ineffective))
same,"M: posumbu knotweed, herbicidal effect",posumbu knotweed [20]; three weeks after application,3 (mortality of at least 40% and less than 70%)
same,"F: wild oat, herbicidal effect",wild oat [21]; three weeks after application,0 (mortality of less than 5% (almost ineffective))
same,"G: water foxtail, herbicidal effect",water foxtail [22]; three weeks after application,0 (mortality of less than 5% (almost ineffective))
same,"D: large crabgrass, herbicidal effect",large crabgrass [23]; three weeks after application,0 (mortality of less than 5% (almost ineffective))
same,"K: redroot pigweed, herbicidal effect",redroot pigweed [24]; three weeks after application,0 (mortality of less than 5% (almost ineffective))
same,"O: beadstraw, herbicidal effect",beadstraw [25]; three weeks after application,5 (mortality of 90% or above (nearly complete death))
same,"H: Italian ryegrass, herbicidal effect",Italian ryegrass [26]; three weeks after application,0 (mortality of less than 5% (almost ineffective))
same,"A: barnyardgrass, herbicidal effect",barnyardgrass [27]; three weeks after application,4 (mortality of at least 70% and less than 90%)
same,"E: giant foxtail, herbicidal effect",giant foxtail [28]; three weeks after application,0 (mortality of less than 5% (almost ineffective))
same,"N: common chickweed, herbicidal effect",common chickweed [29]; three weeks after application,4 (mortality of at least 70% and less than 90%)
same,"B: bulrush, herbicidal effect (evaluation scale 0-5)",bulrush [30],5 (mortality of 90% or above (nearly complete death))
same,"C: ducksalad, herbicidal effect (evaluation scale 0-5)",ducksalad [31],2 (mortality of at least 20% and less than 40%)
same,"A: barnyardgrass, herbicidal effect (evaluation scale 0-5)",barnyardgrass [32],5 (mortality of 90% or above (nearly complete death))
CC(C)COC(=O)N(c1ccccc1CN1COCN(C)C1=O)S(=O)(=O)C(F)(F)F [IV-4],"a: transplanted rice, effect on crop (evaluation scale 0-5)",transplanted rice,0 (mortality of less than 5% (almost ineffective))
same,"herbicidal effect, J: common ragweed",common ragweed [1],0 (mortality of less than 5% (almost ineffective))
same,"herbicidal effect, L: common lambsquater",common lambsquater [2],0 (mortality of less than 5% (almost ineffective))
same,"herbicidal effect, I: velvetleaf",velvetleaf [3],0 (mortality of less than 5% (almost ineffective))
same,"herbicidal effect, M: posumbu knotweed",posumbu knotweed [4],0 (mortality of less than 5% (almost ineffective))
same,"herbicidal effect, F: wild oat",wild oat [5],0 (mortality of less than 5% (almost ineffective))
same,"herbicidal effect, G: water foxtail",water foxtail [6],4 (mortality of at least 70% and less than 90%)
same,"herbicidal effect, D: large crabgrass",large crabgrass [7],4 (mortality of at least 70% and less than 90%)
same,"herbicidal effect, K: redroot pigweed",redroot pigweed [8],0 (mortality of less than 5% (almost ineffective))
same,"herbicidal effect, O: beadstraw",beadstraw [9],0 (mortality of less than 5% (almost ineffective))
same,"herbicidal effect, H: Italian ryegrass",Italian ryegrass [10],0 (mortality of less than 5% (almost ineffective))
same,"herbicidal effect, A: barnyardgrass",barnyardgrass [11],4 (mortality of at least 70% and less than 90%)
same,"herbicidal effect, E: giant foxtail",giant foxtail [12],3 (mortality of at least 40% and less than 70%)
same,"herbicidal effect, N: common chickweed",common chickweed [13],0 (mortality of less than 5% (almost ineffective))
same,"B: bulrush, herbicidal effect (evaluation scale 0-5)",bulrush [14],5 (mortality of 90% or above (nearly complete death))
same,"C: ducksalad, herbicidal effect (evaluation scale 0-5)",ducksalad [15],4 (mortality of at least 70% and less than 90%)
same,"A: barnyardgrass, herbicidal effect (evaluation scale 0-5)",barnyardgrass [16],5 (mortality of 90% or above (nearly complete death))
same,"J: common ragweed, herbicidal effect",common ragweed [17]; [33],0 (mortality of less than 5% (almost ineffective))
same,"L: common lambsquater, herbicidal effect",common lambsquater [18]; [33],0 (mortality of less than 5% (almost ineffective))
same,"I: velvetleaf, herbicidal effect",velvetleaf [19]; [33],3 (mortality of at least 40% and less than 70%)
same,"M: posumbu knotweed, herbicidal effect",posumbu knotweed [20]; [33],0 (mortality of less than 5% (almost ineffective))
same,"F: wild oat, herbicidal effect",wild oat [21]; [33],0 (mortality of less than 5% (almost ineffective))
same,"G: water foxtail, herbicidal effect",water foxtail [22]; [33],4 (mortality of at least 70% and less than 90%)
same,"D: large crabgrass, herbicidal effect",large crabgrass [23]; [33],3 (mortality of at least 40% and less than 70%)
same,"K: redroot pigweed, herbicidal effect",redroot pigweed [24]; [33],0 (mortality of less than 5% (almost ineffective))
same,"O: beadstraw, herbicidal effect",beadstraw [25]; [33],0 (mortality of less than 5% (almost ineffective))
same,"H: Italian ryegrass, herbicidal effect",Italian ryegrass [26]; [33],1 (mortality of at least 5% and less than 20%)
same,"A: barnyardgrass, herbicidal effect",barnyardgrass [27]; [33],4 (mortality of at least 70% and less than 90%)
same,"E: giant foxtail, herbicidal effect",giant foxtail [28]; [33],3 (mortality of at least 40% and less than 70%)
same,"N: common chickweed, herbicidal effect",common chickweed [29]; [33],3 (mortality of at least 40% and less than 70%)
same,"B: bulrush, herbicidal effect (evaluation scale 0-5)",bulrush [30],5 (mortality of 90% or above (nearly complete death))
same,"C: ducksalad, herbicidal effect (evaluation scale 0-5)",ducksalad [31],5 (mortality of 90% or above (nearly complete death))
same,"A: barnyardgrass, herbicidal effect (evaluation scale 0-5)",barnyardgrass [32],5 (mortality of 90% or above (nearly complete death))
